The text below walks through data of patent publication US8198273B2, “Compounds and methods for kinase modulation, and indications therefor” (Plexxikon Inc., priority 2009, dated 2012).

For orientation: IC50 means the concentration that inhibits the measured activity by half.

SMILES strings stand for the structures.

In one series the target is CYP2C19 (Homo sapiens, UniProt P33261). The series can be described thus: CYP2C19 inhibition (fluorescent substrate). The class given is in vitro ADME. The note with it: CYP2C19, CEC substrate; read-out: Cyp IC50 2C19. A digest of the protocol: (§1)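 Human CYP activity was followed by the fluorescence of the metabolized product of a known substrate, which falls as metabolism is inhibited. Compounds from 100 mM DMSO stocks were serially diluted 1:1 over 10 points in co-factor mix and preincubated 10 min at 37 °C. IC50 was fitted from signal versus concentration.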

Series [1] has as its system A375 melanoma cells (B-Raf V600E). The series can be described thus: A375 cell growth inhibition (ATPlite). Type of series: cell-based. Conditions: Homo sapiens, A-375, 72 h; A375, 3 days incubation. A digest of the protocol: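 Cells plated overnight, then exposed 3 days at 37° C to 8-point 1:3 compound dilutions topping at 10 μM final. Viability read as ATPlite luminescence, proportional to cell number; IC50 from luminescence versus concentration.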
In general terms: In ATP-based viability assays light output follows the ATP content of the culture.

The next series concerns the target CYP2D6 (Homo sapiens, UniProt P10635). The series can be described thus: CYP2D6 inhibition (fluorescent substrate). The class given is in vitro ADME. The note with it: CYP2D6, AMMC substrate; read-out: Cyp IC50 2D6. In a few lines:
as §1

Another series deals with CYP2C9 (Homo sapiens, UniProt P11712). The series can be described thus: CYP2C9 inhibition (fluorescent substrate). The class given is in vitro ADME. The note with it: CYP2C9, MFC substrate; read-out: Cyp IC50 2C9. A digest of the protocol:
as §1

The target of the next series is B-Raf V600E (Homo sapiens, UniProt P15056, V600E). The series can be described thus: B-Raf V600E biochemical kinase inhibition (AlphaScreen, biotin-MEK1 substrate). The note with it: 100 μM ATP. A digest of the protocol:
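Raf kinases phosphorylating biotin-MEK1, reaction started with ATP at 100 μM final. Compounds tested at 8 points by serial dilution from a 0.1 mM DMSO stock.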
On the technique in general: Alpha assays give light when donor and acceptor beads are brought close together.

CYP2C19, sequence (P33261 whole entry): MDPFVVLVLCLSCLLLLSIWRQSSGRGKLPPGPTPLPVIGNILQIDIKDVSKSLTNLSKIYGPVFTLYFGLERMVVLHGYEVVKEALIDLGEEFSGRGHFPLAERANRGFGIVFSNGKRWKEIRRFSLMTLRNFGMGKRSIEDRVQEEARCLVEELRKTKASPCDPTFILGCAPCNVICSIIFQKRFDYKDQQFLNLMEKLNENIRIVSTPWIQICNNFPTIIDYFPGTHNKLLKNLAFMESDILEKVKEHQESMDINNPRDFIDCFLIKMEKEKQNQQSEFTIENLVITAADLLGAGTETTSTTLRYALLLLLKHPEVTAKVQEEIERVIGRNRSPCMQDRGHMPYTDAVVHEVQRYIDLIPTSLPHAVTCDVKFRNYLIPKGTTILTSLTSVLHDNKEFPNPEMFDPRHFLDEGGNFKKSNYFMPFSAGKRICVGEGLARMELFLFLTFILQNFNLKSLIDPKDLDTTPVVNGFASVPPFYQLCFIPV
CYP2D6, sequence (P10635 whole entry): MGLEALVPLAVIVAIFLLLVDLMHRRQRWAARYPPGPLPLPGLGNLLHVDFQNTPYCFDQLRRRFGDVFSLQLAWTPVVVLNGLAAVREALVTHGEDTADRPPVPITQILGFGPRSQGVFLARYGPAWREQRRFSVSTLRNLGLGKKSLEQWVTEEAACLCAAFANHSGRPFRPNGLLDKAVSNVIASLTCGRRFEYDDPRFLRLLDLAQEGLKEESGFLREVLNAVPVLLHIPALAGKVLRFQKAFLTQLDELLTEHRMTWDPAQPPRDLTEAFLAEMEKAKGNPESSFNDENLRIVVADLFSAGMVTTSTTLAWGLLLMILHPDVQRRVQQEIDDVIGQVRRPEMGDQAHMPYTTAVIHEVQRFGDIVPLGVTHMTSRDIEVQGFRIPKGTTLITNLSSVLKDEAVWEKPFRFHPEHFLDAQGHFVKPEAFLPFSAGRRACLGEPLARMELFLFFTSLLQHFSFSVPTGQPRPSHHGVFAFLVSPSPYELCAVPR
B-Raf V600E, sequence (P15056 whole entry V600E): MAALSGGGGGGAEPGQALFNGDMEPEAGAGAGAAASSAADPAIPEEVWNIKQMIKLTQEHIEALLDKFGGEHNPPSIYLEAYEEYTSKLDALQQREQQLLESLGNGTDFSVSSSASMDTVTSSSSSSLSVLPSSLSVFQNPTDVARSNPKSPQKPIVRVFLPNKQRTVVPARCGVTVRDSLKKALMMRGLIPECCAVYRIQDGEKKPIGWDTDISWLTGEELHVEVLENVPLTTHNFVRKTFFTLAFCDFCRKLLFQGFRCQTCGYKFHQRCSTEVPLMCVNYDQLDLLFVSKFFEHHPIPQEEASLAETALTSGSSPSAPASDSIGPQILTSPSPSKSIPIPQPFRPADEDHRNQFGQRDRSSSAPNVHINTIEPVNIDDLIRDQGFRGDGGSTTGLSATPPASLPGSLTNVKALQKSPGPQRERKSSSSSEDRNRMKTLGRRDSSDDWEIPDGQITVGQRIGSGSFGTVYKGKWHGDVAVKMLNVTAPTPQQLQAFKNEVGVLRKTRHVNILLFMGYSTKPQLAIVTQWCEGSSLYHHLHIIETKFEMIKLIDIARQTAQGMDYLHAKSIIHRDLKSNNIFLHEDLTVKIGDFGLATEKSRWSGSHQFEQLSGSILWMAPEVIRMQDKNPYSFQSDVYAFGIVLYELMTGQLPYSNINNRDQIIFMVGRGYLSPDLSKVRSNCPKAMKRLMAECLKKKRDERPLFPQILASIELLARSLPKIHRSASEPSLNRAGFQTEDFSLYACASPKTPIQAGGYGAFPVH
CYP2C9, sequence (P11712 whole entry): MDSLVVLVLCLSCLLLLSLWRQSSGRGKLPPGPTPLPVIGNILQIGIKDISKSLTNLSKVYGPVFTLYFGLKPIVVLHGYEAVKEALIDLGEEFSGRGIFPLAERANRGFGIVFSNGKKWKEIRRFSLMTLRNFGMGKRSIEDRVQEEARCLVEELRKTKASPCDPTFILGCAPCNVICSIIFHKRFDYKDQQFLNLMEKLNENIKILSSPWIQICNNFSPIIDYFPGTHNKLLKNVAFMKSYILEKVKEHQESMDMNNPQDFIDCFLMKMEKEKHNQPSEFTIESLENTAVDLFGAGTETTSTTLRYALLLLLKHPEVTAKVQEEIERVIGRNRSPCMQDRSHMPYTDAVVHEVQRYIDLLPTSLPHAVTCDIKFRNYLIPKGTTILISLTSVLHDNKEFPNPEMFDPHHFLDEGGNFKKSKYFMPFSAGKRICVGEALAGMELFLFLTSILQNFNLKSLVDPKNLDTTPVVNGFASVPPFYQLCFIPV

For `COc1ccnc2[nH]cc(C(=O)c3c(F)ccc(NS(=O)(=O)c4cccnc4)c3F)c12` [P-2073, Pyridine-3-sulfonic acid [2,4-difluoro-3-(4-methoxy-1H-pyrrolo[2,3-b]pyridine-3-carbonyl)-phenyl]-amide], the half-inhibitory concentration (IC50) on CYP2C19 was greater than 10 µM; in series [1], less than 10 µM; at CYP2D6, greater than 10 µM; on CYP2C9, greater than 10 µM; on B-Raf V600E, less than 0.1 µM.
With `N#Cc1ccnc2[nH]cc(C(=O)c3c(F)ccc(NS(=O)(=O)c4cccnc4)c3F)c12` [P-2077, Pyridine-3-sulfonic acid [3-(4-cyano-1H-pyrrolo[2,3-b]pyridine-3-carbonyl)-2,4-difluoro-phenyl]-amide], the IC50 is greater than 10 µM on CYP2C19; less than 10 µM in series [1]; greater than 10 µM on CYP2D6; 5 to 10 µM on CYP2C9; less than 0.01 µM against B-Raf V600E.
In the case of `CCCS(=O)(=O)Nc1ccc(F)c(C(=O)c2c[nH]c3ncc(-c4ccc(C(=O)NCC)nc4)cc23)c1F` [P-2151, 5-{3-[2,6-Difluoro-3-(propane-1-sulfonylamino)-benzoyl]-1H-pyrrolo[2,3-b]pyridin-5-yl}-pyridine-2-carboxylic acid ethylamide], the IC50 was greater than 10 µM at CYP2C19; less than 1 µM in series [1]; greater than 10 µM on CYP2D6; 5 to 10 µM at CYP2C9; less than 0.01 µM on B-Raf V600E.
As to `CCCS(=O)(=O)Nc1ccc(F)c(C(=O)c2c[nH]c3ncc(-c4ccc(Cl)nc4)cc23)c1F` [P-2154, Propane-1-sulfonic acid {3-[5-(6-chloro-pyridin-3-yl)-1H-pyrrolo[2,3-b]pyridine-3-carbonyl]-2,4-difluoro-phenyl}-amide], the IC50 at CYP2C19 was 5 to 10 µM; in series [1], less than 1 µM; on CYP2D6 it was greater than 10 µM; at CYP2C9, 5 to 10 µM; at B-Raf V600E it was less than 0.1 µM.
With `CCCS(=O)(=O)Nc1ccc(F)c(C(=O)c2c[nH]c3ncc(-c4ccc(F)nc4)cc23)c1F` [P-2155, Propane-1-sulfonic acid {2,4-difluoro-3-[5-(6-fluoro-pyridin-3-yl)-1H-pyrrolo[2,3-b]pyridine-3-carbonyl]-phenyl}-amide], the IC50 at CYP2C19 was 5 to 10 µM; in series [1], less than 1 µM; on CYP2D6, greater than 10 µM; at CYP2C9 it was greater than 10 µM; at B-Raf V600E, less than 0.01 µM.
As to `CCCS(=O)(=O)Nc1ccc(F)c(C(=O)c2c[nH]c3ncc(-c4cncnc4)cc23)c1F` [P-2162, Propane-1-sulfonic acid [2,4-difluoro-3-(5-pyrimidin-5-yl-1H-pyrrolo[2,3-b]pyridine-3-carbonyl)-phenyl]-amide], the half-maximal inhibitory concentration (IC50) was greater than 10 µM on CYP2C19; less than 1 µM in series [1]; greater than 10 µM on CYP2D6; 5 to 10 µM on CYP2C9; less than 0.01 µM at B-Raf V600E.
With `CCCS(=O)(=O)Nc1ccc(F)c(C(=O)c2c[nH]c3ncc(-c4ccc(NS(C)(=O)=O)cc4)cc23)c1F` [P-2165, Propane-1-sulfonic acid {2,4-difluoro-3-[5-(4-methanesulfonylamino-phenyl)-1H-pyrrolo[2,3-b]pyridine-3-carbonyl]-phenyl}-amide], the IC50 is 5 to 10 µM at CYP2C19; less than 1 µM in series [1]; greater than 10 µM at CYP2D6; 5 to 10 µM at CYP2C9; less than 0.01 µM against B-Raf V600E.
On to `CCCS(=O)(=O)Nc1ccc(F)c(C(=O)c2c[nH]c3ncc(-c4ccc(S(=O)(=O)N5CCOCC5)cc4)cc23)c1F` [P-2166, Propane-1-sulfonic acid (2,4-difluoro-3-{5-[4-(morpholine-4-sulfonyl)-phenyl]-1H-pyrrolo[2,3-b]pyridine-3-carbonyl}-phenyl)-amide], for which the IC50 at CYP2C19 was greater than 10 µM; in series [1], less than 1 µM; on CYP2D6, greater than 10 µM; on CYP2C9 it was greater than 10 µM; against B-Raf V600E it was less than 0.01 µM.
Regarding `CCCS(=O)(=O)Nc1ccc(F)c(C(=O)c2c[nH]c3ncc(-c4ccc(S(=O)(=O)NC)cc4)cc23)c1F` [P-2167, 4-{3-[2,6-Difluoro-3-(propane-1-sulfonylamino)-benzoyl]-1H-pyrrolo[2,3-b]pyridin-5-yl}-N-methyl-benzenesulfonamide], the IC50 is 5 to 10 µM on CYP2C19; less than 1 µM in series [1]; greater than 10 µM at CYP2D6; 5 to 10 µM at CYP2C9; less than 0.01 µM on B-Raf V600E.
In the case of `CCCS(=O)(=O)Nc1ccc(F)c(C(=O)c2c[nH]c3ncc(-c4ccc(S(=O)(=O)NC5CC5)cc4)cc23)c1F` [P-2168, N-Cyclopropyl-4-{3-[2,6-difluoro-3-(propane-1-sulfonylamino)-benzoyl]-1H-pyrrolo[2,3-b]pyridin-5-yl}-benzenesulfonamide], the IC50 was 5 to 10 µM at CYP2C19; less than 1 µM in series [1]; greater than 10 µM at CYP2D6; less than 5 µM on CYP2C9; less than 0.01 µM at B-Raf V600E.
Taken in the same sequence, the figures for `CCCS(=O)(=O)Nc1ccc(F)c(C(=O)c2c[nH]c3ncc(-c4cn[nH]c4)cc23)c1F` [P-2174, Propane-1-sulfonic acid {2,4-difluoro-3-[5-(1H-pyrazol-4-yl)-1H-pyrrolo[2,3-b]pyridine-3-carbonyl]-phenyl}-amide] were 5 to 10 µM, less than 1 µM, 5 to 10 µM, less than 5 µM and less than 0.01 µM.
Take `CCCS(=O)(=O)Nc1ccc(F)c(C(=O)c2c[nH]c3ncc(-c4cnn(CCN5CCOCC5)c4)cc23)c1F` [P-2177, Propane-1-sulfonic acid (2,4-difluoro-3-{5-[1-(2-morpholin-4-yl-ethyl)-1H-pyrazol-4-yl]-1H-pyrrolo[2,3-b]pyridine-3-carbonyl}-phenyl)-amide]: the IC50 on CYP2C19 was 5 to 10 µM; in series [1], less than 1 µM; on CYP2D6, greater than 10 µM; on CYP2C9, less than 5 µM; against B-Raf V600E, less than 0.01 µM.
As to `CCCS(=O)(=O)Nc1ccc(F)c(C(=O)c2c[nH]c3ncc(-c4ccc(OCCCN(C)C)nc4)cc23)c1F` [P-2178, Propane-1-sulfonic acid (3-{5-[6-(3-dimethylamino-propoxy)-pyridin-3-yl]-1H-pyrrolo[2,3-b]pyridine-3-carbonyl}-2,4-difluoro-phenyl)-amide], the IC50 at CYP2C19 was 5 to 10 µM; in series [1], less than 0.1 µM; at CYP2D6 it was greater than 10 µM; on CYP2C9 it was 5 to 10 µM; against B-Raf V600E it was less than 0.01 µM.
Take `CCCS(=O)(=O)Nc1ccc(F)c(C(=O)c2c[nH]c3ncc(-c4ccc(C(=O)NC)nc4)cc23)c1F` [P-2180, 5-{3-[2,6-Difluoro-3-(propane-1-sulfonylamino)-benzoyl]-1H-pyrrolo[2,3-b]pyridin-5-yl}-pyridine-2-carboxylic acid methylamide]: the IC50 at CYP2C19 was 5 to 10 µM; in series [1], less than 1 µM; on CYP2D6 it was greater than 10 µM; on CYP2C9, less than 5 µM; against B-Raf V600E it was less than 0.01 µM.
For `CCCS(=O)(=O)Nc1ccc(F)c(C(=O)c2c[nH]c3ncc(-c4ccc(C(=O)NC5CC5)nc4)cc23)c1F` [P-2181, 5-{3-[2,6-Difluoro-3-(propane-1-sulfonylamino)-benzoyl]-1H-pyrrolo[2,3-b]pyridin-5-yl}-pyridine-2-carboxylic acid cyclopropylamide] the same measures were greater than 10 µM, less than 1 µM, greater than 10 µM, less than 5 µM and less than 0.01 µM.
Taken in the same sequence, the figures for `CCCS(=O)(=O)Nc1ccc(F)c(C(=O)c2c[nH]c3ncc(-c4ccc(S(C)(=O)=O)cc4)cc23)c1F` [P-2183, Propane-1-sulfonic acid {2,4-difluoro-3-[5-(4-methanesulfonyl-phenyl)-1H-pyrrolo[2,3-b]pyridine-3-carbonyl]-phenyl}-amide] were 5 to 10 µM, less than 0.1 µM, greater than 10 µM, 5 to 10 µM and less than 0.01 µM.
Take `CCCS(=O)(=O)Nc1ccc(F)c(C(=O)c2c[nH]c3ncc(-c4ccc(OC)nc4OC)cc23)c1F` [P-2184, Propane-1-sulfonic acid {3-[5-(2,6-dimethoxy-pyridin-3-yl)-1H-pyrrolo[2,3-b]pyridine-3-carbonyl]-2,4-difluoro-phenyl}-amide]: the IC50 on CYP2C19 was greater than 10 µM; in series [1], less than 1 µM; at CYP2D6, greater than 10 µM; on CYP2C9, 5 to 10 µM; against B-Raf V600E, less than 0.1 µM.
Take `CCCS(=O)(=O)Nc1ccc(F)c(C(=O)c2c[nH]c3ncc(-c4ccc(S(=O)(=O)N(C)C)cc4)cc23)c1F` [P-2185, 4-{3-[2,6-Difluoro-3-(propane-1-sulfonylamino)-benzoyl]-1H-pyrrolo[2,3-b]pyridin-5-yl}-N,N-dimethyl-benzenesulfonamide]: the IC50 on CYP2C19 is greater than 10 µM; in series [1], less than 0.1 µM; at CYP2D6 it was greater than 10 µM; at CYP2C9 it was less than 5 µM; against B-Raf V600E, less than 0.01 µM.
